Test results: publication PMC8079283 (The Journal of Biological Chemistry, 2021)

Molecular target: T1, NUDT15 (Homo sapiens, UniProt Q9NV35)
T1 sequence (Q9NV35 1-164): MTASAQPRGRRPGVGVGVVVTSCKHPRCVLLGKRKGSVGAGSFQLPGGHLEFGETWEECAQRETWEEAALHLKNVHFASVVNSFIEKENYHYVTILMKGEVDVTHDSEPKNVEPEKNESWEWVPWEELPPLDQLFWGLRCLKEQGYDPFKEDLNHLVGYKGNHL
Assay: X-ray crystal structure
Type: biochemical

C[C@@H]1CN(C(=O)c2ccc3c(ccn3C)c2)CCN1S(=O)(=O)c1ccc2[nH]c(=O)oc2c1 [compound 6, (R)-6-((2-methyl-4-(1-methyl-1H-indole-5-carbonyl)piperazin-1-yl)sulfonyl)benzo[d]oxazol-2(3H)-one]
Ki: 10.2 ± 0.9 nM
